In general, melting point refers to the temperature of the solid-liquid transition.

`CC(=O)Nc1c(Cl)cnn(-c2ccccc2)c1=O` had a melting point of 177 to 178 °C.
Next, `Fc1ccc(CC(c2ccccc2)C(F)(F)F)cc1` (stereo not given): 143 to 145 °C.
Compound `COC(=O)CCCc1cc2nc(Cl)ccc2n1S(=O)(=O)c1ccc(C)c2ccccc12` came in with a melting point of 118 to 120 °C.
As for `Cc1cccc(NC(=O)NC2N=C(C3CCCCC3)c3ccccc3N(CC(=O)N3CC4CCC(CC4)C3)C2=O)c1` (racemic), the melting point fell in the range of 133 to 135 °C.
Next, `CCCCc1nc2ccccc2c(=O)[nH]1`: 153 to 155 °C; `CCOC(=O)C1=C(C)NC(N=C(C)N(C)C)=C(C(=O)OCC)C1c1ccccc1Cl` (stereo not given): 181 °C.
Consider `CC(C)NC(=O)N1c2ccc(S(=O)(=O)n3cc(-c4ccccc4)[nH]c3=O)cc2CC1C` (stereo not given), for which the melting point is 154 to 156 °C.
Regarding `Cc1nc2c(N)nc3ccccc3c2n1CCC(N)=O`, the melting point is 237 to 239 °C.
Next, `CN(C)S(=O)(=O)c1ccc2c(c1)C(O)c1ccccc1C=C2` (stereo not given): 150 to 152 °C; `CCOC(=O)c1c(N2CCOCC2)c2ccc(C)nc2n(CC)c1=O`: 129 to 131 °C.
Next, `CN=C(SC)N(C)Cc1cc(C)nc(C)c1`: 131 to 133 °C.
The result for `Nn1c(-c2ccccc2Cl)nnc1-c1ccccc1C(F)(F)F` reads 172 to 175 °C; that for `O=C1c2cc(S(=O)(=O)N3CCOCC3)ccc2SC12CC2`, 162 to 165 °C.
Compound `O=C(O)CCc1c(C=C2C(=O)Nc3ccccc32)[nH]c2c1CCCC2` registered a melting point of 263 to 265 °C.
For the compound `CC(CN(O)C(N)=O)OCc1ccco1` (stereo not given), the melting point is 59 to 62 °C.
Next, `CC(NC(=O)C(CS)Cc1ccccc1)C(=O)O` (stereo not given): 120 to 124 °C.
Next, `Cc1cc(Br)ccc1C(=O)NCC(F)(F)F`: 124 to 126 °C; `Nc1c(Cl)cnnc1Cl`: 176 to 178 °C; `O=C(CNC(=O)OCc1ccc([N+](=O)[O-])cc1)Oc1ccc(C(=O)OCI)cc1`: 146 to 148 °C.
The result for `O=C(NO)Oc1ccccc1` reads 99.5 to 101 °C.
`CSc1n[nH]c(-c2cc(C(C)(C)C)c(O)c(C(C)(C)C)c2)n1` yielded a melting point of 271 to 272 °C.
Next, `COc1cc(C(=O)O)ccc1C(F)(F)F`: 203 to 204 °C.
`COc1c(C)c(C)c(OC)c(C(O)(c2cccnc2)C2CCCCC2)c1C` (stereo not given) came in with a melting point of 134 to 135 °C.
`Cc1cccc(-c2nc(C(C)C)[nH]c2-c2cccc(-c3cnn(C)c3)c2)n1` gave a melting point of 84 to 86 °C.
The compound `O=C(O)CCc1cc2nc(Cl)ccc2n1S(=O)(=O)c1ccc2ncsc2c1` displayed a melting point of 248 °C.
The result for `O=C(c1cccc(Br)c1)C(Br)C(Br)c1cccc(Br)c1` (stereo not given) reads 159 to 160 °C.
Next, `COc1ccc2[nH]c3c(c2c1[N+](=O)[O-])CCC3O` (stereo not given): 230 °C.
The result for `O=C(O)CNC(=O)c1ncc(-c2cccc(F)c2)cc1O` reads 182 to 184 °C.
Compound `Cc1ccc(-c2ccc3cc(C(=O)Nc4ccc(CN(C)C5CCOCC5)cc4)[nH]c3c2)cc1` displayed a melting point of 246 to 250 °C.
Next, `Cc1noc(NC(=O)N2CCN(c3nccc(-c4cccc(F)c4)n3)CC2)c1C`: 161 to 162 °C; `O=S1(=O)c2cccc3cccc(c23)N1CCN1CC=C(c2c[nH]c3ccccc23)CC1`: 208 °C; `CNc1ccc(C(C)(C)c2ccc(C(C)(C)c3ccc(NC)cc3)cc2)cc1`: 115 to 122 °C.
In the case of `CC(C)(C)C(=O)CC(=O)c1ncn2c1c(=O)n(C(C)(C)C)c1ccccc12`, the melting point was 190 to 191 °C.
The result for `CN(C)c1ccc(C(=O)c2cc(C(F)(F)F)cc(C(F)(F)F)c2)cc1` reads 129 to 131 °C.
Next, `COC(=O)c1cc(CO)ccc1OCc1nc(-c2ccco2)oc1C`: 131 to 132 °C; `Cc1cc2c(c3c1C(c1ccc(C(C)C)cc1)CO3)CCC2` (stereo not given): 77 to 78 °C; `CC(=O)c1c(-c2ccccc2)sc(-c2ccncc2)c1C`: 111 to 112 °C.
Next, `Clc1ccc(C(C2=NCCN2)c2nccs2)cc1` (stereo not given): 145 to 147 °C; `CN1CCN(C(=O)c2c(N3CCN(C(=O)c4ccco4)CC3)n(-c3ccccc3)c3ccccc23)CC1`: 180 to 181 °C; `O=C(O)[C@H](Cc1ccccc1)NC(=O)[C@@H]1CCCN1C(=O)c1ccccc1`: 200 to 202 °C.
For `CC(=NOc1ccc(C=O)cc1)c1ccc(C)cc1`, the melting point is 96 to 98 °C.
The result for `CCN(CC)C(=O)c1ccc(C)c(-c2nc(N(C)CCCN(C)C)nc3c2CNC(=O)N3c2c(F)cccc2F)c1` reads 106 to 108 °C.
The result for `Cc1nnc(-c2ccnc(N)c2)o1` reads 216 to 217 °C.
Compound `CCCN1CCN(c2cc3ccccc3c(=O)[nH]2)CC1CO` (stereo not given) came in with a melting point of 152 to 154 °C.
The result for `CCOC(=O)CC(O)CC(O)C=CC(=C(c1ccc(F)cc1)c1ccc(F)cc1)n1nnnc1-c1ccccc1` (stereo not given) reads 160 to 162 °C.
The result for `O=C1CC(=O)C2C3C=CC(CC3)C12` (stereo not given) reads 264 °C; that for `CCCCCC(C)C(C)c1cc(O)c2c(c1)OC(C)(C)C1=C2CN(CC(N)=O)CC1` (stereo not given), 165 to 168 °C; that for `Cc1cc(Cl)c2c(O)c3c(=O)[nH][nH]c(=O)c3nc2c1`, 197 to 199 °C.
As to `O=C(O)CCCCCOc1ccc2sc(-c3ccccn3)nc(=O)c2c1`, the melting point was 205 to 206 °C.
In the case of `C[C@@H]1[C@@H](NS(=O)(=O)c2ccc(F)cc2)CN1C(c1ccc(Cl)cc1)c1ccc(Cl)cc1`, the melting point lay within 154 to 157 °C.
Compound `CC(C)(C)n1ncc(OCc2ccc(OCc3ccc(F)cc3)nc2)c(Cl)c1=O` displayed a melting point of 121 to 124 °C.
`O=C(Nc1nc2cnccc2s1)Oc1ccccc1` returned a melting point above 290 °C.
In turn, `Cc1nc2n(c(=O)c1CCO)CCCN2Cc1ccccc1` registered a melting point of 150 °C.
The result for `ON=C1c2ccccc2CSc2ccccc21` reads 241 to 243 °C; that for `COCCOc1cc(C)c(O)c2ccccc12`, 100 to 101 °C.
Consider `CC1(C)C(=O)Nc2cc3[nH]cnc3cc21`, for which the melting point fell in the range of 278 to 280 °C.
Next, `[N-]=[N+]=NC1=CN(CC(F)(F)F)c2ccccc2C(c2ccccc2)=N1`: 159 to 160 °C; `CC(=O)Nc1cc(Oc2c(Cl)cc(-n3ncc(=O)[nH]c3=O)cc2Cl)ccc1O`: 101 to 109 °C; `O=C(O)c1ccc(-n2ccc3ccccc32)cc1`: 222 to 224 °C.
Next, `CC(C)n1c(C=O)c(-c2ccc(F)cc2)c(-c2ccc(F)cc2)c1C(=O)Nc1ccc(CC(=O)N(C)C)cc1`: 226 to 227 °C; `CCOC(=O)c1nccn1-c1nc(-c2ccc(Cl)cc2)c(CCCOc2ccccc2OC)o1`: 90 to 91 °C; `COc1cccc(C(C[N+](=O)[O-])SC(=S)N(C)C)c1OC(C)=O` (stereo not given): 124 to 126 °C.
The result for `CCCCCC#CCC#CCC#CCC#CCO` reads 54 to 56 °C; that for `C=CCOc1ccccc1OCC(O)CN1CCC(N2CCCNC2=O)CC1` (stereo not given), 122 to 125 °C; that for `CCCCCCc1ccc(N2C=CC(=C=C3C(C#N)C(=C(C#N)C#N)OC3(C)C)C=C2)cc1` (stereo not given), 193 °C.
`Nc1cc(OCC(CO)OCP(=O)(O)O)nc(N)n1` (racemic): the melting point came out at 213 °C.
The result for `O=C(NCCCOc1ccccn1)c1cccs1` reads 91 to 92 °C.
Next, `CN1CCN(c2ccc(Nc3nccc(-c4c[nH]nc4-c4ccc(Cl)cc4)n3)cc2)CC1`: 282 to 284 °C; `NC(=O)C(Cc1ccccc1)=NNc1ccc(C(O)(C(F)(F)F)C(F)(F)F)cc1`: 211 to 213 °C; `c1ccc(-c2nc3n(c2-c2ccccn2)CCS3)nc1`: 142 to 143 °C.
Next, `COC(=O)c1ccc(Br)cc1CSC`: 79.3 °C; `O=C(NCCO)c1cccc(-c2ccc3c(c2)N(c2ccc(Cl)cc2Cl)CCCC3)c1`: 172 to 173 °C.
Compound `COc1ccc2[nH]c3c(c2c1)CCSc1ccccc1-3` returned a melting point of 151 to 154 °C.
The result for `CC(CCCO[Si](C)(C)C(C)(C)C)C1CCC2C3CC=C4C(C)(C)C(O[Si](C)(C)C(C)(C)C)CCC4(C)C3CCC12C` (stereo not given) reads 161 to 162 °C; that for `CCN(CC)CCN1C(=O)c2cc(Cl)c(S(N)(=O)=O)cc2C1=O`, 152 to 154 °C.
`CCCNC(=O)C(C)Cc1ccc2c(c1)c(Cc1ccc(C(=O)NS(=O)(=O)c3ccccc3C)cc1OC)cn2CC(=O)N(C)C` (stereo not given) registered a melting point of 109 to 124 °C.
Next, `O=C(O)c1ccc2oc(-c3ccc(Cl)c(Cl)c3)cc2c1`: above 260 °C; `Cc1scc2c1N(C(=O)NCCN1CCC(CCCN3CCCCC3)CC1)c1ccccc1NC2=O`: 170 to 171 °C; `CN(CCc1c[nH]c2ccccc12)C(=O)CCCC(=O)O`: 125 to 126 °C.
Turning to `O=C(O)c1cccc(-c2cccc(CC(=O)N(Cc3ccccc3)C3c4ccccc4CCC3Cc3ccccc3)c2)c1` (stereo not given), the melting point lay within 171 to 172 °C.
The result for `N#CC1CN1C(=O)CNC(=O)c1ccccc1` (stereo not given) reads 78 to 81 °C; that for `COC(=O)c1ccc(C(=O)NCCNC(=O)c2ccc(C(=O)OC)cc2)cc1`, 297 to 299 °C.
In turn, `O=C(Cn1cncn1)c1ccc(Cl)cc1` displayed a melting point of 151 to 153 °C.
Next, `CCn1ncc2c(Cl)c3cccc(OC)c3nc21`: 168 to 170 °C.
As for `OC1CSC(Oc2cccc(-c3ccncc3Cl)c2)C(O)C1O` (stereo not given), the melting point lay within 158 to 161 °C.
`Cc1ccnc2nc(NS(=O)(=O)c3ccccc3Cl)nn12`: the melting point is 268 to 269 °C.
Next, `CC(=O)Nc1ccc(N)c2c1C(=O)C(O)(c1ccc(C(C)C)cc1O)C2=O` (stereo not given): 278 to 280 °C; `O=C1NN=C(c2ccc3c(c2)CCN(C2CCC2)CC3)C2CC12` (stereo not given): 129 to 132 °C.
Regarding `Cc1cccc(-c2nc3cccnn3c2-c2ccnc(NCC(C)(C)C)c2)c1`, the melting point was 157 to 158 °C.
Next, `Nc1c(-c2cc(Cl)ccc2O)c2cc(Cl)c(Cl)cc2[nH]c1=O`: 305 to 307 °C.

Values taken from a melting point compilation (Tetko et al.; mined from patent text by program, amines drawn as free bases though some values may be those of a salt).
